Assay results from patent publication US20040096356A1, “Assay device for determining analytes in a liquid dairy product” (priority 1997, published 2004).

What was measured:
[1] = molecular target: T1, enzyme R39 (soluble exocellular D-alanyl-D-alanine carboxypeptidase produced by Actinomadura R39) (Actinomadura sp., UniProt P39045); assay: Test 1, rapid test (5 minutes): strip test for β-lactam antibiotics in milk using enzyme R39; type: binding; conditions: for Intensity 1st band: scale 0 to 10, reference band 6, 47° C., 3 min incubation + 2 min migration
T1 construct: soluble exocellular D-alanyl-D-alanine carboxypeptidase produced by Actinomadura R39, obtained by the procedure described in J.-M. Frere et al; made in house; host or cells: Actinomadura R39 (natural producer, secreted enzyme)
Method: (§1) The identifier used in this example is soluble exocellular D-alanyl-D-alanine carboxypeptidase produced by Actinomadura R39, obtained by the procedure described in J.-M. Frere et al., Antimicrobial Agents and Chemotherapy, 18(4), 506-510 (1980).
(§2) 250 μl of an aqueous solution of enzyme R39 having a concentration of 1 mg/ml are dialysed for 24 hours against 500 ml of HNM buffer (Hepes 10 mM, pH 8, NaCl 10 mM, MgCl2 5 mM). To this dialysed solution of enzyme R39 are then added 2 ml of bicarbonate buffer (0.1 M sodium bicarbonate, pH 9) and 250 μl of a solution of N-hydroxysuccinimide 6-(biotinamido)caproic ester having a concentration of 5 mg/ml in anhydrous DMF. This solution is stirred gently in the LABINCO stirrer for tubes on a rotary axis (available from VEL, Belgium) at a rate of 2 revolutions/minute for 3 hours at room temperature and away from light. The solution thus obtained is dialysed against the HNM buffer ([…]) for 24 hours. In this way a solution of biotinylated enzyme R39 is obtained which is diluted in HNM-BSA buffer (Hepes 500 mM; pH 8, NaCl 500 mM, MgCl2 250 mM, BSA 10 mg/ml) to a concentration of 100 μg of enzyme R39 per ml of buffer. This solution is stored at −20° C.
(§3) As the marker use is made of particles of gold having a diameter of 40 nm on which a goat anti-biotin antibody has been deposited in the form of suspensions in a 2 mM aqueous sodium tetraborate solution, with a pH of 7.2, stabilized by 0.1% of sodium azide (available from British Biocell (Ref. GAB40)). The optical density of these suspensions at 520 nm is approximately 10 and the protein concentration is approximately 24 μg/ml.
(§4) The biotinylated enzyme R39 solution prepared in Example 2.2.1 is diluted 25 times with the HNM-BSA buffer (Hepes 500 mM, pH 8, NaCl 500 mM, MgCl2 250 mM, BSA 10 mg/ml). At room temperature, 17.5 parts by volume of this dilute biotinylated enzyme R39 solution, 9.27 parts by volume of the gold particle suspension used to label the enzyme R39 and 6 parts by volume of reference gold particle suspension are mixed (see Example 2.3).
(§5) The first capture substance makes it possible to fix the identifiers coupled with the free markers present in excess relative to the quantity of antibiotic present in the sample.
(§6) Assay devices containing membranes (2), (3) and (4) are used, assembled in accordance with the procedure described in Example 1.1. The membrane (3) of these devices carries on the proximal side the capture substance described in Example 2.4.1. and on the distal side the capture substance described in Example 2.4.2. The capture substances were deposited in accordance with the procedure described in Example 1.2.
Seven samples of milk are prepared, containing 0; 2; 4; 5; 6; 8 and 10 ppb, respectively, of penicillin G. Each of these solutions is then analysed as follows.
(§7) An aliquot is taken of 200 μl of milk sample and 32.8 ml of solution A prepared in Example 2.2.3, and is placed in an Eppendorf tube. This mixture is incubated at 47° C. for 3 minutes. An assay device is then placed vertically in the Eppendorf tube such that the first end of the assay device is in contact with the mixture. The mixture is allowed to migrate over the assay device while the assembly is incubated at 47° C. for 2 minutes.
(§8) An intensity value ranging from 0 to 10 is awarded to the bands detected, the value 10 being given to the most intense band and the value 0 being given to the least intense band. On this scale, a value 6 is awarded to the reference band. The intensity of the signal observed in the first detection band is inversely proportional to the quantity of penicillin G present in the sample.
In this example, the test is considered to be positive when the first band has an intensity which is lower than that of the reference band. The results shown in Table 1 indicate that this test makes it possible to detect in 5 minutes down to 4 ppb of penicillin G in a milk sample.

[2] = molecular target: T1, enzyme R39 (soluble exocellular D-alanyl-D-alanine carboxypeptidase produced by Actinomadura R39); assay: Test 2, sensitive test (7 minutes): strip test for β-lactam antibiotics in milk using enzyme R39; type: binding; conditions: for Intensity 1st band: scale 0 to 10, reference band 6, 47° C., 5 min incubation + 2 min migration
Method: as §1, §2, §3
as §4, with “diluted 50” for “diluted 25”
as §5, §6
Six samples of milk are prepared, containing 0; 2; 2.5; 3; 4 and 5 ppb, respectively, of penicillin G. Each of these solutions is then analysed as follows.
as §7, with “32.8 μl” for “32.8 ml”, “solution B” for “solution A”, “for 5” for “for 3”
as §8
In this example, the test is considered to be positive when the first band has an intensity which is lower than that of the reference band. The results shown in Table 2 indicate that this test makes it possible to detect in 7 minutes down to 2.5 ppb of penicillin G in a milk sample.

T1 sequence (P39045 50-515): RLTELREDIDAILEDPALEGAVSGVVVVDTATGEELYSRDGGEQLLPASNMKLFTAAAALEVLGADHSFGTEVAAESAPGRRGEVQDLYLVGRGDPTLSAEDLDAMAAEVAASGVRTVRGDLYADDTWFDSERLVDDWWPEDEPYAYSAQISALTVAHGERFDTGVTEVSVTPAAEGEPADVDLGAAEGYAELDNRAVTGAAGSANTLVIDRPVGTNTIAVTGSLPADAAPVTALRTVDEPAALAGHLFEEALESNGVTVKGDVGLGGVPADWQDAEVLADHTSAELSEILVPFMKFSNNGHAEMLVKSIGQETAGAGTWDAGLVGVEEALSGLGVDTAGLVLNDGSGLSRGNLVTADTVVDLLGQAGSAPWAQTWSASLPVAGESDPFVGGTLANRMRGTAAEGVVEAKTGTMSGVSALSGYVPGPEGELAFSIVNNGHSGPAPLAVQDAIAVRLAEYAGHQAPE

## CC1(C)S[C@@H]2[C@H](NC(=O)Cc3ccccc3)C(=O)N2[C@H]1C(=O)O [Penicillin G, penicillin G]
[1]; 2 ppb penicillin G in milk
  Intensity 1st band: 8
[1]; 4 ppb penicillin G in milk
  Intensity 1st band: 5
[1]; 5 ppb penicillin G in milk
  Intensity 1st band: 3
[1]; 6 ppb penicillin G in milk
  Intensity 1st band: 2
[1]; 8 ppb penicillin G in milk
  Intensity 1st band: 1
[1]; 10 ppb penicillin G in milk
  Intensity 1st band: 0
[1]; in 5 minutes, positive when first band is less intense than reference band
  lowest concentration detected in a milk sample: 4 ppb
[2]; 2 ppb penicillin G in milk
  Intensity 1st band: 7
[2]; 2.5 ppb penicillin G in milk
  Intensity 1st band: 5
[2]; 3 ppb penicillin G in milk
  Intensity 1st band: 4
[2]; 4 ppb penicillin G in milk
  Intensity 1st band: 1
[2]; 5 ppb penicillin G in milk
  Intensity 1st band: 0
[2]; in 7 minutes, positive when first band is less intense than reference band
  lowest concentration detected in a milk sample: 2.5 ppb
